The text below walks through data of patent EP0369874A2, “Cardioprotective tocopherol analogs” (MERRELL DOW PHARMACEUTICALS INC., priority 1988, dated 1990).

A short description of series [1]: Free-radical scavenging: inhibition of autoxidation of 1-epinephrine (Misra and Fridovich). It counts as biochemical. The conditions noted are these: 1-epinephrine 1 x 10⁻⁴M, EDTA 1 x 10⁻⁴M, 30°C, absorbance at 480; read-out: 50% inhibition of the autoxidation rate (ID₅₀). As to the method:
2-(3,4-dihydro-6-hydroxy-2,5,7,8-tetramethyl-2H-1-benzopyran-2-yl)ethyl-N,N,N-trimethylammonium bromide, described in Example 1, was evaluated for its ability to reduce superoxide radicals in an assay described by H.P. Misra and J. Fridovich, 1972, J. Biol. Chem. 247, 3170-5. In this assay, the rate of autoxidation of 1-epinephrine (1 x 10⁻⁴M) in the presence of EDTA (1 x 10⁻⁴M) at 30°C is followed spectrophotometrically following the increase of absorbance at 480 mn. […] For comparison, 3,4-dihydro-6-hydroxy-2,5,7,8-tetramethyl-2H-1-benzopyran-2-carboxylic acid (CAS 53188-07-1) gave ID₅₀= 105 ± 8 µM and d,1-penicillamine (CAS 52-67-5)ID₅₀ = 73 µM in parallel experiments. Misra and Fridovich report that bovine superoxide dismutase gave 50% inhibition at […].

Series [2] in a line: Affinity for cardiac tissue: radioactivity in heart and blood after intravenous 14C-labelled compound. The class given is in vivo. The conditions noted are these: rats, 0.91 mg base/kg intravenous. As to the method:
Following the procedure described in Example11, but using ¹⁴C-methyl p-toluenesulfonate in place of "cold material", ¹⁴C-labelled 2-(3,4-dihydro-2,5,7,8-tetramethyl-6-methylcarbonyloxy-2H-1benzopyranan-2-yl)ethyl-N,N,N-tri-¹⁴C-methylammonium p-toluenesulfonate was synthesized. The preparation was diluted with "cold material" to 11.74 µCi/mg base.
24 rats were given 0.91 mg base/kg by inravenous route (by canula into the jugular vein). The animals were sacrificed in groups of 3 at the time periods indicated in Table I. Immediately before sacrifice a 0.5 ml blood sample was taken from an indwelling catheter in the carotid artery. The hearts were removed, blotted and weighed. The samples of tissue and blood were solubilized with Luma Solve (a quarternary ammonium hydroxide preparation) and radioactivity was determined in a scintillation counter.

In series [3] the test system is ligation-induced infarcted and reperfused rats. The series is described as follows: Cardioprotective effects: coronary ligation 60 min, reperfusion 30 min, infarcted area / area at risk. The class given is in vivo. The method, then:
2-(3,4-Dihydro-2,5,7,8-tetramethyl-6-methylcarbonyloxy-2H-1-benzopyran-2-yl)ethyl-N,N,N-trimethylammonium bromide was evaluated in ligation-induced infarcted and reperfused rats as follows. One of two groups of rats was infused intravenously with a solution of test compound in saline at a rate of 2.3 ml/h (10 mg/kg/h). The control group was infused with saline at the same rate. After 10 min of drug infusion, coronary arteries were ligated surgically for 60 min, ligation was loosened to allow reperfusion for 30 min. The ligation was […] dye (Evans Blue) was injected. The animals were sacrificed and the heart ventricles were removed and weighed. The unstained tissue was dissected and weighed; this represents the "area at risk". i.e. the area that was deprived of blood supply by ligation. To determine the infarcted area, the tissue was incubated with 2,3,5-triphenyltetrazolium chloride. Infarcted tissue became light colored and could be dissected and weighed. Thus, for each rat that survived the ligation a measurement of "area at risk" and of "infarcted area" was obtained and the ratio was calculated as given in Tables II and III. TABLE II 3,4-Dihydro-2-(2-dimethylaminoethyl)-2,5,7,8-tetramethyl-2H-1-benzopyran-6-yl acetate hydrochloride was evaluated in ligation-induced infarcted and reperfused rats as follows. One of two groups of rats was infused intravenously with a solution of test compound in saline at a rate of 2.3 ml/h (10 mg/kg/h). The control group was infused with saline at the same rate. After 10 min of drug, coronary arteries were ligated surgically for 60 min, ligation was loosened to allow reperfusion for 30 min. The ligation was […] dye (Evans Blue) was injected. The animals were […] heart […] removed and weighed. The unstained tissue was dissected and weighed; this represents the "area at risk", i.e. the area that was deprived of blood supply by ligation. To determine the infarcted area, the tissue was incubated with 2,3,5-triphenyltetrazolium chloride. Infarcted tissue became light colored and was dissected and weighed. Thus, for each rat that survived the ligation a measurement of "area at risk" and of "infarcted area" was obtained and the ratio was calculated as shown in the following tables.

Where [4] appears, read: treated group, intravenous infusion 10 mg/kg/h, individual rats, listed as 3,4-Dihydro-2-(2-dimethylaminoethyl)-2,5,7,8-tetramethyl-2H-1-benzopyran-6-yl ac, acetate hydrochloride.

Where “and” joins values, the source holds several entries; their conditions need not be identical. Equal values may be shown once.

On to d,1-penicillamine, for which the IC50 in series [1] stood at 73 µM.
With `CC(=O)Oc1c(C)c(C)c2c(c1C)CCC(C)(CC[N+](C)(C)C)O2.Cc1ccc(S(=O)(=O)[O-])cc1` (stereo not shown) [Example 18, 2-(3,4-Dihydro-2,5,7,8-tetramethyl-6-methylcarbonyloxy-2H-1-benzopyran-2-yl)ethyl-N,N,N-trimethylammonium p-toluenesulfonate], the Ratio heart/blood is 3.05±1.46 in series [2] (5 min after administration); 6.90±8.34 in series [2] (15 min after administration); 17.33±5.42 in series [2] (30 min after administration); 20.09±2.54 in series [2] (1 hour after administration); 21.90±3.56 in series [2] (2 hours after administration); 27.15 and 27.15±4.30 in series [2] (4 hours after administration, listed as 2-(3,4-dihydro-2,5,7,8-tetramethyl-6-methylcarbonyloxy-2H-1benzopyranan-2-yl)eth, p-toluenesulfonate). The Ratio heart/blood in series [2] (6 hours after administration) was found to be 18.62±2.77; in series [2] (8 hours after administration), 15.12±2.69. Moreover, the ng equiv/ml blood in series [2] (5 min after administration) turned out to be 0.434±0.351 ng equiv/ml; in series [2] (15 min after administration) it was 0.590±0.295 ng equiv/ml; in series [2] (30 min after administration) it was 0.124±0.032 ng equiv/ml; in series [2] (1 hour after administration) it was 0.096±0.008 ng equiv/ml; in series [2] (2 hours after administration) it was 0.086±0.041 ng equiv/ml; in series [2] (4 hours after administration) it was 0.054±0.013 ng equiv/ml. The ng equiv/ml blood was determined as 0.048±0.007 ng equiv/ml in series [2] (6 hours after administration) and 0.048±0.012 ng equiv/ml in series [2] (8 hours after administration). For the same molecule, the “concentration of drug in heart tissue” value in series [2] (after 8 h) came to 0.65 µg equiv/g.
As to `CC(=O)Oc1c(C)c(C)c2c(c1C)CCC(C)(CC[N+](C)(C)C)O2.[Br-]` (stereo not shown) [Example 11, 2-(3,4-Dihydro-2,5,7,8-tetramethyl-6-methylcarbonyloxy-2H-1-benzopyran-2-yl)ethyl-N,N,N-trimethylammonium bromide], in series [3] (treated group, intravenous infusion 10 mg/kg/h, individual rats), the Infarcted tissue was 23 mg and 27 mg and 39 mg and 33 mg.
Turning to `CC(=O)Oc1c(C)c(C)c2c(c1C)CCC(C)(CCN(C)C)O2.Cl` (stereo not shown) [Example 4, 3,4-Dihydro-2-(2-dimethylaminoethyl)-2,5,7,8-tetramethyl-2H-benzopyran-6-yl acetate hydrochloride], the reduction of infarction in series [3] (treated group (10 mg/kg/h) versus saline control group) was 48.2%. Also, in series [3] (treated group, intravenous infusion 10 mg/kg/h, group average), the “Ratio % (infarcted tissue / tissue at risk), average” value stood at 38.0%. Also, in series [3] (setting [4]), the Infarcted tissue is 337 mg and 80 mg and 51 mg (2×) and 346 mg and 18 mg and 294 mg and 34 mg; the “Ratio % (infarcted tissue / tissue at risk)” value was 70.1% and 40.3% and 10% and 83.2% and 4% and 71.6% and 17.5% and 7.0%.
Turning to `Cc1c(C)c2c(c(C)c1O)CCC(C)(CC[N+](C)(C)C)O2` (stereo not shown) [Example 10, 2-(3,4-Dihydro-6-hydroxy-2,5,7,8-tetramethyl-2H-1-benzo-pyran-2-yl)ethyl-N,N,N-trimethylammonium bromide], the IC50 in series [1] was determined as 138 ± 14 µM.
Same read-out and setting: for `Cc1c(C)c2c(c(C)c1O)CCC(C)(C(=O)O)O2` (stereo not shown) [3,4-dihydro-6-hydroxy-2,5,7,8-tetramethyl-2H-1-benzopyran-2-carboxylic acid] the value was 105 ± 8 µM.
